Source: patent US20130029884A1, “BIOCIDE FORMULATIONS” (ENVIROSYSTEMS, INC., priority 2011, published 2013)

Experiments:
[1] = cited from earlier work
[2] = tested on: acid producing bacteria (APB); assay: microbiological kill study in field water (bottle growth test), acid producing bacteria; type: cell-based; conditions: field water from a well in Texas; active biocide 94 to 500 ppm tested
Protocol: (§1) Microbiological studies were carried out with the formulation of Example 1 and compared to tests with other known biocides. The field water used for testing came from a well in Texas. The biocides were tested at varying concentrations of the active biocide in the field water at active biocide concentrations from 94 parts per million (ppm) to 500 ppm. The biocide of Example 1 was tested along with several known biocides.
(§2) Microbiological kill studies were carried out in field waters considered to be problematic.
(§3) A field water sample was used to dilute the formulation and growth media was added. […] For the SRB concentrations up to 150 ppm PCMX were studied. […] For the APB samples, concentrations of up to 100 ppm PCMX were studied. […] The diluted sample was also tested after the sample had experienced four freeze/thaw cycles and the sample with growth media added was tested with PCMX concentrations up to 100 ppm PCMX.
(§4) For the 42 ppm hydrogen sulfide concentration water, testing was carried out with PCMX concentrations up to 100 ppm. […] For the 24 ppm hydrogen sulfide concentration water, testing was carried out with PCMX concentrations up to 125 ppm.

[3] = tested on: sulfate reducing bacteria (SRB); assay: microbiological kill study in field water (bottle growth test), sulfate reducing bacteria; type: cell-based; conditions: field water from a well in Texas; active biocide 94 to 500 ppm tested
Protocol: as §1, §2, §3, §4

Row | Compound | hydrolysis half life [1] | active biocide concentration with complete kill of APB [2] | active biocide concentration with complete kill of SRB [3]
1 | CN1CSC(=S)N(C)C1 [Dazomet] | 3.6 h | > 270 ppm | > 270 ppm
2 | O=CCCCC=O [glutaraldehyde] |  | 250 ppm | 250 ppm
3 | N#CC(Br)(Br)C(N)=O [DBNPA, dibromocyanoacetamide] |  | 20 ppm | 20 ppm
4 | tetrakis hydroxylmethyl phosphonium sulfate [THPS] |  | 150 ppm | 150 ppm
